Results published in patent publication US12662530B2, “Anti-ADM-antibodies binding to the free N-terminus for accelerated transition of ADM-Gly to bio-ADM in patients with ADM-Gly/ bio-ADM ratio above a threshold and combination with vitamin C” (SphingoTec GmbH, priority 2020, dated 2026).
Read-outs that look alike come from different tables or passages of the source.

Assays:
[1] = test system: human native PAM; assay: Native human PAM activity in human serum with NT- and MR-anti-ADM antibodies; assay type: biochemical; conditions: antibody 100 μg/mL; FIG. 9
Description: Human serum was used as source of human native PAM. Each sample (20 μl) was diluted two-fold in 100 mM Tris-HCl in duplicate. The amidation reaction was initiated by addition of 160 μl of NT-ADM antibodies (HAM8101, AK1373, AK1388, AK1398 or AK1434) or MR-ADM antibodies (ADM43, ADM38, ADM41, ADM2901, ADM2902 and ADM2903) containing PAM-reaction buffer (100 mM Tris-HCl, pH 7.5, 6.25 μM CuSO4, 2.5 mM Ascorbate, 125 μg/mL Catalase, 62.5 μM Amastatin, 250 μM Leupeptin, and 36 ng/mL synthetic 1-53 Adrenomedullin-Gly as substrate). The final antibody concentrations were 100 μg/mL, respectively. Afterwards, 100 μl of each individual reaction of duplicated samples were combined and transferred into 20 μl of 200 mM EDTA to terminate the amidation reaction and thus to generate a t=0 minutes reaction time-point followed by incubation at 37° C. for 40 minutes. Afterwards the non-terminated reactions were stopped with 10 μl of 200 mM EDTA. To determine the PAM activity in NT-ADM antibody containing samples, bio-ADM was quantified in each reaction using the Sphingotest® bio-ADM immunoassay (Weber et al. 2017, supra). The MR-ADM antibody containing reaction was transferred to an alternative bio-ADM assay (description below). A control reaction without antibodies was measured in both bio-ADM assays. For each sample the difference between t=40 min and t=0 min bio-ADM concentration was calculated. […]

[2] = test system: ADM-Gly to bio-ADM conversion; assay type: in vivo; conditions: for ADM-Gly/bioADM Ratio: Table 4, n 9
Text: ADM-Gly was quantified as based on Weber et al. (Weber et al. 2017. JALM 2(2): 222-233) for bioactive ADM with the following modifications: the tracer-antibody used for ADM-Gly detection, labelled with MACN-acridinium-NHS, was directed to the C-terminal glycine of ADM-Gly. The assay was calibrated with synthetic ADM-Gly. […] All determined ADM-Gly concentrations were corrected for cross-reactivity as follows: For each ADM-Gly quantification additional quantification of bio-ADM in corresponding samples was performed using the Sphingotest® bio-ADM immunoassay. The corresponding bio-ADM values were used to determine the signal (RLU) generated with the antibody directed to C-terminal glycine of ADM on a bio-ADM calibration curve. The determined signal (RLU) was used to calculate the false-positive ADM-Gly concentration (pg/mL) using the ADM-Gly calibration curve. This concentration was subtracted from the initially determined ADM-Gly concentration. […]
(§1) Critically ill subjects were from the AdrenOSS-I cohort described in example 7. Healthy and healthy HAM8101 treated subjects were from the study cohort described in example 6 (Geven et al. 2017. Intensive Care Med Exp 5 (Suppl 2): 0427). Bio-ADM was determined as described by Weber et al., 2017. ADM-Gly was determined as described in example 4.

[3] = test system: MR-proADM/bio-ADM ratio; assay: MR-proADM/bio-ADM ratio in samples of healthy subjects after administration; assay type: in vivo, human; conditions: Table 5, n 18
Description: as §1
The same patients as described in example 8 were also analysed for their MR-proADM/ADM-NH2 ratio.

[4] = test system: native PAM; assay: ADM maturation activity (AMA) of native PAM in Li-Heparin plasma with antibody and varying L-ascorbate; assay type: biochemical, human; conditions: FIG. 15
Description: A serial antibody-dilution with concentrations of 0, 5, 10, 50, 100, 500 and 3000 μg/mL per well, respectively (in 20 μl) were pipetted into 96-well micro-titer plates. Then 160 μl PAM reaction buffer (100 mM Tris-HCl, 6.25 μM CuSO4, 62.5 μM amastatin, 250 μM leupeptin, 36 ng/mL ADM-Gly) with varying L-ascorbate concentrations was added to the wells and incubated for 15 min. Afterwards the reaction was started by addition of 20 μl of Li-Heparin plasma, containing native PAM Immediately after addition of plasma, 100 μl from each well were removed and inactivated by addition of EDTA (20 mM final concentration) to generate a t=0 minutes reaction point. Inactivated and non-inactivated samples were incubated for 40 minutes at 37° C. and the reaction in non-inactivated samples was stopped as described above. For quantification of produced ADM-NH2 the Sphingotest® bio-ADM Kit (Weber et al. 2017) was utilized according to manufacturer's manual. The ADM maturation activity (AMA) was calculated according to equation 1 (DF=dilution factor of sample matrix).

[5] = Geven et al. 2017; cited from earlier work
[6] = test system: CLP-induced sepsis in mice; conditions: pre-treatment, cited from earlier work

Substance: HAM8101: humanized N-terminal anti-ADM antibody, heavy chain SEQ ID No. 35, light chain SEQ ID No. 36
- influence on amidating activity compared within the tested antibodies of the same region [1]: showed the strongest influence
- ADM-Gly/bioADM Ratio ([2]; Healthy HAM8101 treated (1 h)): 0.61
- ADM-Gly/bioADM Ratio ([2]; Healthy HAM8101 treated (4 h)): 0.33
- ratio of ADM-Gly/bio-ADM ([2]; group 1 (0.5 mg/kg), after 1 h, FIG. 12): approximately 0.75
- ratio of ADM-Gly/bio-ADM ([2]; group 1 (0.5 mg/kg), after 24 hours): No further change
- ratio of ADM-Gly/bio-ADM ([2]; group 1 (0.5 mg/kg), four hours after administration): approximately 0.38
- ratio of ADM-Gly/bio-ADM ([2]; group 2 (2 mg/kg), after 1 h): ~0.63
- ratio of ADM-Gly/bio-ADM ([2]; group 2 (2 mg/kg), after 24 hours): No further change
- ratio of ADM-Gly/bio-ADM ([2]; group 2 (2 mg/kg), four hours after administration): ~0.25
- ratio of ADM-Gly/bio-ADM ([2]; group 3 (8 mg/kg), after 1 h): ~0.43
- ratio of ADM-Gly/bio-ADM ([2]; group 3 (8 mg/kg), after 24 hours): approximately 0.5
- ratio of ADM-Gly/bio-ADM ([2]; group 3 (8 mg/kg), four hours after administration): approximately 0.38
- MR-proADM/bio-ADM ratio ([3]; Healthy HAM8101 treated (1 h)): 44.6
- MR-proADM/bio-ADM ratio ([3]; Healthy HAM8101 treated (4 h)): 42.4
- increase of the bio-ADM formation of PAM ([4]; 100 μg/mL of HAM8101 in the amidation assay, Li-Heparin plasma): 40%
- effect on the amidation for each ascorbate concentration assayed ([4]; HAM8101 0-3000 μg/mL): concentration dependent positive effect on the amidation
- safety and tolerability, phase I study [5]: no serious adverse events were observed
- 7-day survival ([6]; repeated dose administration, control 0%): 40%
- 7-day survival ([6]; single dose administration, control 10%): 50%
